From patent US9133236B2, “Connective tissue stimulating peptides” (priority 2002, dated 2015)
Where no end group is shown, it is not given here. [ ]: non-standard residue; d: D form. Hyp = O=C(O)[C@@H]1C[C@@H](O)CN1

Assays:
tibia = assay: Periosteal tibia injection, DEXA bone mineral density and content; type: in vivo, male Wistar rats; conditions: 7 days post injection; for changes in BMC (bone mineral content) / changes in BMD (bone mineral density): treated whole tibia in all regions, DEXA, SKELITE powder carrier
Procedure: BCSP1 peptide and BCSP4 peptide were tested at four dose levels, 0.05, 0.5, 1.0 & 5.0 mg/rat or vehicle, n=6 per dose. Sixty male Wistar rats, weighing 90-110 grams, were randomized into two groups, ear tagged and left undisturbed for 1 week prior to the procedure. Food and water are administered ad libitum. Animals weighed 150-190 grams at time of injection. Group 1 received injections of BCSP4 peptide on day 8 of acclimation. Group 2 received injections of BCSP1 peptide on day 9 of acclimation. Dissections were conducted on respective days, 7 days post injection.
The peptides were dissolved in sterile water at 0.05-5 mgs per 100 microliter volume, added to 0.5 mg of a dry synthetic biomaterial compound (SKELITE™) powder and lyophilized onto the carrier. Samples are resuspended in 100 microliters of sterile saline for injection. Delivery of the test compound was made under a general anaesthetic of Isofluorane with oxygen. Using a 0.5 cc insulin syringe fitted with a 28G1/2″ needle, the peptides were deposited onto the periosteal surface of the right medial tibia surface proximal to the knee under the Tibialis cranialis muscle group. Control animals are injected with saline vehicle and a synthetic biomaterial compound (SKELITE™) carrier.
Animals were euthanized with carbon dioxide and dissected to remove the treated right tibia and contra-lateral control limb, 7 days post injection. Muscle and soft connective tissue is dissected away prior to fixation in 70% ethanol.
Each tibia set was scanned as a pair for bone mineral density (BMD) and bone mineral content (BMC) on a Norland Eclipse DEXA scanner in small subject mode. Percent increases in local BMD (FIG. 5) were calculated against the untreated contra-lateral limb. […] This increase in physical size reduces the overall percentage increase in BMD (BMD=BMC/cm^2). Each tibia was analyzed in 3 contiguous regions, proximal, medial and distal as well as whole tibia measurements. Comparisons and statistical assessment of dose versus vehicle were conducted for each peptide for bone forming activity using a standard student t-test.

[1] = tested on: rat bone marrow derived osteoblasts; assay: Cell bound alkaline phosphatase, bone marrow derived osteoblasts; type: cell-based
Procedure: (§1) BCSP1 was tested in three assays to understand the mechanism of bone stimulation by the peptide. Dose ranges in the microgram range were used to generate dose response curves. All assays used primary rat osteoblast cultures from bone marrow or calvaria.
(§2) Osteoblast proliferation was accessed using a DNA based assay which measures bromodeoxyuridine (BrdU) incorporation. Differentiation of osteoblasts was determined using the mid to late stage bone marker Alkaline Phosphatase. Late stage differentiation and mineralization was determined using a Bone Nodule formation assay (calvaria only).
(§3) Cell bound alkaline phosphatase from cell lysates of rat bone marrow derived osteoblasts and rat calvaria derived osteoblasts. BCSP1 was provided at a dose range of 100 μg/ml to 1 μg/mL. Cells were cultured for 3 days prior to a 48 hr exposure to the peptide.

[2] = tested on: rat calvaria derived osteoblasts; assay: Cell bound alkaline phosphatase, calvaria derived osteoblasts; type: cell-based; conditions: rat calvaria cultures (RC); 10 μg/ml to 100 μg/ml; 48 hr exposure
Procedure: as §1, §2, §3

rat calvaria cultures = assay: Bone nodule formation assay, alizarin red staining; type: cell-based; conditions: 10 days
Procedure: as §1, §2
Rat calvaria cultures were maintained for 10 days in the presence of BCSP1 at a dose range of 1 ng/ml to 100 μg/ml with dosing provided at each fluid change. Mineralized bone nodules were detected by staining with alizarin red. Image analysis was conducted with an Alpha Imager 2000™ to count and quantify nodule area. […] Increased alkaline phosphatase would lead to increases in total mineralized area.

human chondrocytes = assay: [3H] thymidine incorporation assay, human primary chondrocyte cultures; type: cell-based
Procedure: (§4) BCSP1 was tested in vitro to determine effect on bovine and human primary chondrocyte cultures using a [3H] thymidine incorporation assay. Cells were seeded at […] for human chondrocytes (96 well plate) and allowed to attach for 48 h (medium containing 10% fetal bovine serum (FBS). Pre-confluent cells were then treated in quaduplicate with BCSP1 (0, 10, 20 and 40 ng/ml for 48 hrs and with [3H]thymidine ([…]) for the last 24 hrs (medium containing 2% FBS). The culture medium used was Dulbecco's Modified Eagle Medium (DMEM) (Gibco, Cat. #23800) containing 200 units/ml Penicillin, 200 ug/ml Streptomycin and 10% FBS for growth and 2% FBS for dosing.

[3] = tested on: osteoblast cultures derived from rat bone marrow; assay: Osteoblast proliferation, BrdU incorporation, bone marrow derived cultures; type: cell-based; conditions: 24 hr exposure
Procedure: as §1, §2
Cells were cultured for four days prior to a 24 hr exposure to the peptide (FIG. 11).

[4] = tested on: osteoblast cultures derived from rat calvaria; assay: Osteoblast proliferation, BrdU incorporation, calvaria derived cultures; type: cell-based; conditions: dose range of 1.3-6.4 ng/ml; 24 hr exposure
Procedure: as §1, §2
Cells were cultured for four days prior to a 24 hr exposure to the peptide at a dose range from 100 μg/ml to 1.3 ng/ml of peptide (FIG. 12).

bovine chondrocytes = assay: [3H] thymidine incorporation assay, bovine primary chondrocyte cultures; type: cell-based
Procedure: as §4

For “NGLPGPIGP* (NGLPGPIG[Hyp]) [BCSP1, P* is hydroxyproline]”, the bone size (tibia; treated tibia) was “increase in bone size”, the “specific activity of alkaline phosphatase” value ([1]; further experimentation, not shown, culture not specified) was “increase in specific activity” and the “alkaline phosphatase over control (vehicle)” value ([1]; rat bone marrow cultures (RBM), 1 μg/ml to 100 μg/ml, 48 hr exposure) was “dose dependent response”. The “alkaline phosphatase over control (vehicle)” value [2] was “dose dependent response”, the “number of bone nodules formed” value (rat calvaria cultures; 1 ng/ml and 10 ng/ml range) was “slight increase” and the “number of bone nodules formed” value (rat calvaria cultures; 1 ng/ml to 100 μg/ml) was “minimal changes”. For the same substance, the “total mineralized bone nodule area (size of nodules)” value (rat calvaria cultures; 1 ng/ml to 100 μg/ml, dose dependent) was “significantly increased”, the “proliferation of chondrocyte cells” value (human chondrocytes; 10, 20 and 40 ng/ml, 48 hrs) was “dose dependent increase” and the effect on proliferation (human chondrocytes; doses in the nanogram range) was “up to 3 fold”. For the same substance, the “increase in DNA synthesis” value ([3]; rat bone marrow osteoblasts, up to 100 μg/ml) was no more than 75%, the osteoblast proliferation ([3]; to 100 μg/ml) was “dose response increase” and the osteoblast proliferation [4] was “statistically significant increase”. The “proliferation of chondrocyte cells” value (bovine chondrocytes; 10, 20 and 40 ng/ml, 48 hrs) was “dose dependent increase” and the effect on proliferation (bovine chondrocytes; doses in the nanogram range) was “up to 3 fold”.

PGPIG [BCSP7] was tested, and the “changes in BMC (bone mineral content)” value (tibia) was “Significant changes” and the “changes in BMD (bone mineral density)” value (tibia) was “Significant changes”.

With PGPIGP [BCSP9] the “changes in BMC (bone mineral content)” value (tibia) was “Significant changes” and the “changes in BMD (bone mineral density)” value (tibia) was “Significant changes”.

For PGPIGPPGPR [BCSP10], the “changes in BMC (bone mineral content)” value (tibia) was “Significant changes” and the “changes in BMD (bone mineral density)” value (tibia) was “Significant changes”.
